Measured values: US20050113450A1, “Antibacterial agents” (priority 2002, published 2005)
≈ marks a conversion by molar mass, not a printed value.

Test system: SA 9218
Assay: MIC by standard agar dilution method
Assay type: cell-based
Details: Mueller Hinton agar, 10^4 to 10^5 cells per spot, incubated overnight at 35° C., lowest concentration that inhibits visible growth
In short: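 MIC read after overnight 35 °C incubation as lowest drug level preventing visible growth. Inoculum of roughly 10^4–10^5 cells per spot (0.5 McFarland, 1:20 in TSB) applied to Mueller Hinton agar containing serial 2-fold compound dilutions.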

Row | SMILES | MIC [mg/L] | SA 9218 MIC [mg/L]
1 | O=C(Nc1ccc(Br)cc1C(=O)O)c1ccc(Br)c(S(=O)(=O)NC2Cc3ccccc3C2)c1 | 64 (≈ 108 µM) | –
2 | O=C(O)c1cc(Br)ccc1NC(=O)c1cccc2c1C(=O)c1ccccc1-2 | > 128 | –
3 | COc1cc(Br)c(C(=O)Nc2ccc(Br)cc2C(=O)O)cc1OC | > 128 | –
4 | CCCOc1ccc(C(=O)Nc2ccc(Br)cc2C(=O)O)cc1 | 64 (≈ 169 µM) | –
5 | O=Cc1cccc(C(=O)Nc2ccc(Br)cc2C(=O)O)c1 | > 128 | –
6 | CC(=O)Oc1cccc(C(=O)Nc2ccc(Br)cc2C(=O)O)c1 | 128 (≈ 338 µM) | –
7 | COc1ccc(C(=O)Nc2ccc(Br)cc2C(=O)O)cc1F | 16 (≈ 43.5 µM) | –
8 | COc1ccc(Br)c(C(=O)Nc2ccc(Br)cc2C(=O)O)c1 | 128 (≈ 298 µM) | –
9 | O=C(Nc1ccc(Br)cc1C(=O)O)c1ccc2c(c1)S(=O)(=O)c1ccccc1C2=O | 16 (≈ 32.9 µM) | –
10 | Cc1ccc(F)cc1C(=O)Nc1ccc(Br)cc1C(=O)O | 64 (≈ 182 µM) | –
11 | COc1ccc([N+](=O)[O-])c(C(=O)Nc2ccc(Br)cc2C(=O)O)c1 | > 128 | –
12 | O=C(Nc1ccc(Br)cc1C(=O)O)c1cc(C(F)(F)F)ccc1Cl | > 128 | –
13 | N#Cc1ccc(NC(=O)c2cccc(O)c2)c(C(=O)O)c1 | 32 (≈ 113 µM) | –
14 | CCN(CC)C(=O)c1c(F)ccc(F)c1C(=O)Nc1ccc(Br)cc1C(=O)O | > 128 | –
15 | O=C(Nc1ccc(Br)cc1C(=O)O)c1cc(S(=O)(=O)Nc2ccc3c(c2)OCCO3)c(F)cc1Cl | 128 (≈ 219 µM) | –
16 | O=C(Nc1ccc(Br)cc1C(=O)O)c1ccc(OC(F)F)cc1 | 64 (≈ 166 µM) | –
17 | O=C(Nc1ccc(-c2ccccc2)cc1C(=O)O)c1ccc(S(=O)(=O)N2CCc3ccccc32)cc1 [L-217792] | 8 (≈ 16 µM) | –
18 | CN(c1ccc(Cl)cc1)S(=O)(=O)c1cccc(C(=O)Nc2ccc(C(F)(F)F)cc2C(=O)O)c1 [PHA-500334] | 16 (≈ 31.2 µM) | –
19 | O=C(Nc1ccc(Br)cc1C(=O)O)c1cccc(OCc2ccccc2)c1 [PHA-501685] | – | 2

Row | SMILES | MIC [mg/L] | SA 9218 MIC [mg/L]
20 | Cl.O=C(Nc1ccc(Br)cc1C(=O)O)c1cccc(SCc2ccncc2)c1 [PHA-502339A] | 8 | –
21 | CS(=O)(=O)c1cccc(C(=O)Nc2ccc(Br)cc2C(=O)O)c1 [PHA-513541] | 64 (≈ 161 µM) | –
22 | CN(c1ccc(Cl)cc1)S(=O)(=O)c1cc(C(=O)Nc2ccc(Br)cc2C(=O)O)cc([N+](=O)[O-])c1 [PHA-515583] | 8 (≈ 14.1 µM) | –
23 | CN(c1ccccn1)S(=O)(=O)c1ccc(C(=O)Nc2ccc(Br)cc2C(=O)O)cc1 [PHA-516112] | 8 (≈ 16.3 µM) | –
24 | O=C(Nc1ccc(Cl)cc1C(=O)O)c1cccc(C(=O)c2ccccc2)c1 [PHA-518226] | – | 2
25 | CC(=O)c1ccc(C(=O)Nc2ccc(Br)cc2C(=O)O)cc1 [PHA-520446] | 16 (≈ 44.2 µM) | –
26 | O=C(Nc1ccc(Br)cc1C(=O)O)c1cccc(C(O)c2ccccc2)c1 (stereo not drawn) [PHA-521534] | – | 1
27 | N#Cc1ccc(NC(=O)c2ccccc2)c(C(=O)O)c1 [PHA-521535] | – | >128
28 | CC(=O)c1cccc(C(=O)Nc2ccc(Br)cc2C(=O)O)c1 [PHA-522145] | 32 (≈ 88.4 µM) | –
29 | O=C(Nc1ccc(Br)cc1C(=O)O)c1cccc(C(=NO)c2ccccc2)c1 [PHA-524545] | – | 0.25
30 | N#Cc1ccc(NC(=O)c2ccccc2)c(C(=O)O)c1 [PHA-530685] | – | 32
31 | N#Cc1cc(C(=O)Nc2ccc(Br)cc2C(=O)O)cc(S(=O)(=O)N2CCc3ccccc32)c1 [PHA-530687] | 8 (≈ 15.2 µM) | –
32 | O=C(Nc1ccc(Br)cc1C(=O)O)c1cccc(CCc2ccccc2)c1 [PHA-530989] | 4 (≈ 9.43 µM) | –
33 | Cn1cccc1-c1ccc(NC(=O)c2cccc(S(=O)(=O)N3CCc4cc(Cl)ccc43)c2)c(C(=O)O)c1 [PHA-556658] | 8 (≈ 14.9 µM) | –
34 | O=C(Nc1ccc(-c2cnccn2)cc1C(=O)O)c1cccc(S(=O)(=O)N2CCc3cc(Cl)ccc32)c1 [PHA-556661] | 8 (≈ 15 µM) | –
35 | O=C(Nc1ccc(-c2ccco2)cc1C(=O)O)c1cccc(S(=O)(=O)N2CCc3cc(Cl)ccc32)c1 [PHA-556663] | 8 (≈ 15.3 µM) | –
36 | O=C(Nc1ccc(-c2ccccc2)cc1C(=O)O)c1cccc(S(=O)(=O)N2CCc3cc(Cl)ccc32)c1 [PHA-557035] | 4 (≈ 7.5 µM) | –
37 | C[C@H](c1ccccc1)N(C)S(=O)(=O)c1cccc(C(=O)Nc2ccc(C#N)cc2C(=O)O)c1 [PHA-562862] | 4 (≈ 8.63 µM) | –

The remaining compounds from weak to strong by MIC, led by results:

Row | MIC [mg/L] | SA 9218 MIC [mg/L] | SMILES
38 | 4 (≈ 6.8 µM) | – | O=C(Nc1ccc(Br)cc1C(=O)O)c1cc(S(=O)(=O)Nc2ccc(Cl)cc2)ccc1Br
39 | 4 (≈ 11.4 µM) | – | COc1cccc(C(=O)Nc2ccc(Br)cc2C(=O)O)c1 [PHA-504639]
40 | 2 (≈ 5.26 µM) | – | CCSc1cccc(C(=O)Nc2ccc(Br)cc2C(=O)O)c1 [PHA-501748]
41 | 2 (≈ 4.51 µM) | – | O=C(Nc1ccc(Br)cc1C(=O)O)c1cccc(SCc2ccncc2)c1 [PHA-502339]
42 | 2 (≈ 4.85 µM) | – | O=C(Nc1ccc(Br)cc1C(=O)O)c1cccc(Oc2ccccc2)c1 [PHA-513535]
43 | 2 (≈ 4.71 µM) | – | O=C(Nc1ccc(Br)cc1C(=O)O)c1cccc(C(=O)c2ccccc2)c1 [PHA-515448]
44 | 2 (≈ 3.97 µM) | – | CN(c1ccccc1N)S(=O)(=O)c1ccc(C(=O)Nc2ccc(Br)cc2C(=O)O)cc1 [PHA-516113]
45 | 2 (≈ 4.76 µM) | – | O=C(Nc1ccc(Br)cc1C(=O)O)c1cccc(C#Cc2ccccc2)c1 [PHA-526578]
46 | 2 (≈ 3.71 µM) | – | O=C(Nc1ccc(-c2cccs2)cc1C(=O)O)c1cccc(S(=O)(=O)N2CCc3cc(Cl)ccc32)c1 [PHA-556657]
47 | 2 (≈ 4.31 µM) | – | C[C@@H](c1ccccc1)N(C)S(=O)(=O)c1cccc(C(=O)Nc2ccc(C#N)cc2C(=O)O)c1 [PHA-562863]
48 | 2 (≈ 3.52 µM) | – | O=C(Nc1ccc(-c2ccc(Cl)cc2)cc1C(=O)O)c1cccc(S(=O)(=O)N2CCc3cc(Cl)ccc32)c1 [PHA-563274]
49 | 2 (≈ 3.46 µM) | – | O=C(Nc1ccc(-c2cccc([N+](=O)[O-])c2)cc1C(=O)O)c1cccc(S(=O)(=O)N2CCc3cc(Cl)ccc32)c1 [PHA-563275]
50 | 2 (≈ 3.58 µM) | – | N#Cc1ccc(-c2ccc(NC(=O)c3cccc(S(=O)(=O)N4CCc5cc(Cl)ccc54)c3)c(C(=O)O)c2)cc1 [PHA-563276]
51 | 2 (≈ 3.62 µM) | – | Cc1csc(-c2ccc(NC(=O)c3cccc(S(=O)(=O)N4CCc5cc(Cl)ccc54)c3)c(C(=O)O)c2)c1 [PHA-563277]
52 | 2 (≈ 3.63 µM) | – | O=C(Nc1ccc(-c2ccc(F)cc2)cc1C(=O)O)c1cccc(S(=O)(=O)N2CCc3cc(Cl)ccc32)c1 [PHA-563278]
53 | 1 (≈ 2.26 µM) | – | O=C(Nc1ccc(Br)cc1C(=O)O)c1cccc(CSc2ccccc2)c1 [PHA-501684]
54 | 1 (≈ 1.52 µM) | – | O=C(Nc1ccc(Br)cc1C(=O)O)c1cc(Br)cc(S(=O)(=O)N2CCc3cc(Br)ccc32)c1 [PHA-515585]
55 | 1 (≈ 2.36 µM) | – | O=C(Nc1ccc(Br)cc1C(=O)O)c1ccc(C(=O)c2ccccc2)cc1 [PHA-520447]
56 | 1 (≈ 1.99 µM) | – | O=C(Nc1ccc(Br)cc1C(=O)O)c1cccc(S(=O)(=O)N2CCc3ccccc32)c1 [PHA-520938]
57 | 1 (≈ 2.7 µM) | – | N#Cc1ccc(NC(=O)c2cccc(C(=O)c3ccccc3)c2)c(C(=O)O)c1 [PHA-524524]
58 | 1 (≈ 2.33 µM) | – | O=C(Nc1ccc(Br)cc1C(=O)O)c1cccc(Sc2ccccc2)c1 [PHA-526580]
59 | 1 (≈ 2.79 µM) | – | N#Cc1ccc(NC(=O)c2cccc(Oc3ccccc3)c2)c(C(=O)O)c1 [PHA-535553]

Row | MIC [mg/L] | SA 9218 MIC [mg/L] | SMILES
60 | 1 (≈ 2.5 µM) | – | N#Cc1ccc(NC(=O)c2cccc(S(=O)(=O)N3CCCC3)c2)c(C(=O)O)c1 [PHA-543140]
61 | 1 (≈ 2.12 µM) | – | Cc1ccc(NC(=O)c2cccc(S(=O)(=O)N3CCc4cc(Cl)ccc43)c2)c(C(=O)O)c1 [PHA-552831]
62 | 1 (≈ 2.1 µM) | – | CC1(C)CN(S(=O)(=O)c2cccc(C(=O)Nc3ccc(C#N)cc3C(=O)O)c2)c2ccccc21 [PHA-555027]
63 | 1 (≈ 2.17 µM) | – | Cc1cc(C(=O)Nc2ccc(C#N)cc2C(=O)O)cc(S(=O)(=O)N2CCc3ccccc32)c1 [PHA-556214]
64 | 1 (≈ 2.79 µM) | – | N#Cc1ccc(NC(=O)c2ccc(Oc3ccccc3)cc2)c(C(=O)O)c1 [PHA-561055]
65 | 1 (≈ 2.66 µM) | – | N#Cc1ccc(NC(=O)c2cccc(Oc3cccc(F)c3)c2)c(C(=O)O)c1 [PHA-562731]
66 | 1 (≈ 1.49 µM) | – | O=C(Nc1ccc(-c2cc(C(F)(F)F)cc(C(F)(F)F)c2)cc1C(=O)O)c1cccc(S(=O)(=O)N2CCc3cc(Cl)ccc32)c1 [PHA-563280]
67 | 0.5 (≈ 0.896 µM) | – | CN(c1ccc(Cl)cc1)S(=O)(=O)c1cc(Br)cc(C(=O)Nc2ccc(Cl)cc2C(=O)O)c1 [PHA-509059]
68 | 0.5 (≈ 1 µM) | – | O=C(Nc1ccc(Br)cc1C(=O)O)c1cccc(S(=O)(=O)n2ccc3ccccc32)c1 [PHA-516116]
69 | 0.5 (≈ 1.28 µM) | – | O=C(Nc1ccc([N+](=O)[O-])cc1C(=O)O)c1cccc(C(=O)c2ccccc2)c1 [PHA-519402]
70 | 0.5 (≈ 1.1 µM) | – | CON=C(c1ccccc1)c1cccc(C(=O)Nc2ccc(Br)cc2C(=O)O)c1 [PHA-522146, 5-Bromo-2-({3-[(methoxyimino)(phenyl)methyl]benzoyl}amino)benzoic acid]
71 | 0.5 (≈ 1.36 µM) | – | N#Cc1ccc(NC(=O)c2cccc(SC3CCCC3)c2)c(C(=O)O)c1 [PHA-546926]
72 | 0.5 (≈ 0.832 µM) | – | O=C(Nc1ccc(-c2ccccc2C(F)(F)F)cc1C(=O)O)c1cccc(S(=O)(=O)N2CCc3cc(Cl)ccc32)c1 [PHA-563279]
73 | 0.25 (≈ 0.649 µM) | – | N#Cc1ccc(NC(=O)c2cccc(C(=NO)c3ccccc3)c2)c(C(=O)O)c1 [PHA-535548]
74 | 0.25 (≈ 0.626 µM) | – | CON=C(c1ccccc1)c1cccc(C(=O)Nc2ccc(C#N)cc2C(=O)O)c1 [PHA-535549]
75 | 0.25 (≈ 0.671 µM) | – | Cc1ccccc1Oc1cccc(C(=O)Nc2ccc(C#N)cc2C(=O)O)c1 [PHA-562733]
76 | 0.25 (≈ 0.519 µM) | – | N#Cc1ccc(NC(=O)c2ccc3c(c2)S(=O)(=O)N(c2ccc(Cl)cc2)CC3)c(C(=O)O)c1 [PHA-562745]
77 | 0.125 (≈ 0.259 µM) | – | N#Cc1ccc(NC(=O)c2cccc(S(=O)(=O)N3CCc4cc(Cl)ccc43)c2)c(C(=O)O)c1 [PHA-524523, 2-({3-[(5-Chloro-2,3-dihydro-1H-indol-1-yl)sulfonyl]benzoyl}amino)-5-cyanobenzoic acid]
78 | 0.125 (≈ 0.263 µM) | – | COc1ccc2c(ccn2S(=O)(=O)c2cccc(C(=O)Nc3ccc(C#N)cc3C(=O)O)c2)c1 [PHA-543139]
79 | 0.125 (≈ 0.281 µM) | – | N#Cc1ccc(NC(=O)c2cccc(S(=O)(=O)n3ccc4ccccc43)c2)c(C(=O)O)c1 [PHA-543141]
80 | 0.125 (≈ 0.26 µM) | – | N#Cc1ccc(NC(=O)c2cccc(S(=O)(=O)n3ccc4cc(Cl)ccc43)c2)c(C(=O)O)c1 [PHA-543681]
81 | 0.125 (≈ 0.311 µM) | – | CC(Sc1cccc(C(=O)Nc2ccc(C#N)cc2C(=O)O)c1)c1ccccc1 (stereo not drawn) [PHA-547267]
